In the experiment the test system is NBD1. The experiment can be described thus: Aggregation analysis of NBD1 thermal stability by differential static light scattering (DSLS). It counts as binding, Human. To be noted: compound at 100 μM; ΔTagg versus DMSO control. The procedure: Purified recombinant NBD1 was produced using previously described methods (A. Schmidt, J. L. Mendoza, P. J. Thomas (2011) Biochemical and Biophysical Approaches to Probe CFTR Structure (365-376) M. D. Amaral, K. Kunzelmann (eds.), Cysic Fibrosis, Methods in Molecular Biology 741, Springer Science+Business Media). The effect of test compounds on thermal stability of NBD1 was evaluated by differential static light scattering (DSLS) using the Harbinger Stargazer-384 instrument (Epiphyte Three, Toronto, Canada). Test compounds were dissolved and diluted to desired concentrations in 100% DMSO. The compounds or DMSO controls (100 nL) were stamped into wells of a […] low volume optical plate (Corning Inc., Corning, NY) using the Echo 555 acoustic liquid handler (Labcyte Inc., San Jose, CA).
NBD1 protein was diluted to 0.2 mg/ml in S200 buffer (50 mM Tris-HCl, 150 mM NaCl, 5 mM MgCl2, 2 mM ATP, 2 mM DTT, pH7.6) containing 1% glycerol. 10 uL of protein solution was aliquoted into the 384-well plate harboring the test compounds and 10 uL mineral oil was overlayed onto the protein solution, using the epMotion robotic liquid handler (Eppendorf North America, Hauppauge, NY). After placing into the Stargazer instrument, the plate was heated at 1° C. per minute to 70° C. Images were captured from 25° C. to 70° C. every 0.5° C. At the end of the experiment run, instrument software integrated image files and analyzed data automatically. A […] regression curve was generated for each well, representing the increase in light scattering over time. A temperature of aggregation (Tagg) was calculated based on the inflection point of the curve. To better compare data across experiments the average Tagg for DMSO control wells was calculated and subtracted from values for wells containing compounds to obtain a “ΔTagg” value. These ΔTagg values reflect stabilizing efficacy of the compounds.
As to `OC(c1ccccc1)c1cnc(-c2cccc(Oc3ccc4[nH]ccc4n3)c2)[nH]1` (centres unmarked) [Example 52, (2-(3-((1H-Pyrrolo[3,2-b]pyridin-5-yl)oxy)phenyl)-1H-imidazol-5-yl)(phenyl)methanol], the “DSLS NBD1/3D Human Stability delta-T (° C.) @ 100 (μM)” value (from here on “DSLS NBD1/3D Human Stability delta-T”) was “B (4-8° C.)”.
Turning to `CC(C(=O)O)(c1ccccc1)c1c[nH]c(-c2cc(Oc3c(F)cc4[nH]ccc4c3F)ccc2F)n1` (centres unmarked) [Example 76, 2-(2-(5-((4,6-Difluoro-1H-indol-5-yl)oxy)-2-fluorophenyl)-1H-imidazol-4-yl)-2-phenylpropanoic acid], the “DSLS NBD1/3D Human Stability delta-T” value was “B (4-8° C.)”.
In the case of `CC(=O)NCc1c(Oc2cccc(-c3nnc(Cc4ccccc4)[nH]3)c2)ccc2[nH]ccc12` [Example 50, N-((5-(3-(5-Benzyl-4H-1,2,4-triazol-3-yl)phenoxy)-1H-indol-4-yl)methyl)acetamide] it was “B (4-8° C.)”.
In the case of `CNCCS(=O)(=O)c1c(Oc2cccc(-c3ncc(C(C)(O)c4ccccc4)[nH]3)c2)c(F)cc2[nH]ccc12` (centres unmarked) [Example 64, 1-(2-(3-((6-Fluoro-4-((2-(methylamino)ethyl)sulfonyl)-1H-indol-5-yl)oxy)phenyl)-1H-imidazol-5-yl)-1-phenylethan-1-ol], the “DSLS NBD1/3D Human Stability delta-T” value is “A (T ≥8° C.)”.
For `CS(=O)(=O)c1c(Oc2cccc(-c3ncc(C(N)c4ccccc4)[nH]3)c2)c(F)cc2[nH]ccc12` (centres unmarked) [Example 15, (2-(3-((6-Fluoro-4-(methylsulfonyl)-1H-indol-5-yl)oxy)phenyl)-1H-imidazol-5-yl)(phenyl)methanamine], the “DSLS NBD1/3D Human Stability delta-T” value is “A (T ≥8° C.)”.
In the case of `CC(c1ccccc1)c1c[nH]c(-c2cc(Oc3c(F)cc4[nH]ccc4c3CC3SC(=O)NC3=O)ccc2F)n1` (centres unmarked) [Example 2, 5-((6-Fluoro-5-(4-fluoro-3-(4-(1-phenylethyl)-1H-imidazol-2-yl)phenoxy)-1H-indol-4-yl)methyl)thiazolidine-2,4-dione], the “DSLS NBD1/3D Human Stability delta-T” value is reported as “B (4-8° C.)”.
Consider `CNS(=O)(=O)c1c(Oc2ccc(F)c(-c3ncc(C(C)(O)c4ccccc4)[nH]3)c2)c(F)cc2[nH]ccc12` (centres unmarked) [Example 22, 6-Fluoro-5-(4-fluoro-3-(5-(1-hydroxy-1-phenylethyl)-1H-imidazol-2-yl)phenoxy)-N-methyl-1H-indole-4-sulfonamide], for which the “DSLS NBD1/3D Human Stability delta-T” value is reported as “B (4-8° C.)”.
In the case of `Cc1c(Oc2ccc(F)c(-c3ncc(C(C)(O)c4ccccc4)[nH]3)c2)c(F)cc2[nH]cc(CC(=O)O)c12` (centres unmarked) [Example 74, 2-(6-Fluoro-5-(4-fluoro-3-(5-(1-hydroxy-1-phenylethyl)-1H-imidazol-2-yl)phenoxy)-4-methyl-1H-indol-3-yl)acetic acid], the “DSLS NBD1/3D Human Stability delta-T” value was “B (4-8° C.)”.
In the case of `OC(c1cccc(-c2nnc(Cc3ccccc3)[nH]2)c1)c1ccc2[nH]ccc2c1` (single isomer, unassigned) [Example 35B, (3-(5-Benzyl-4H-1,2,4-triazol-3-yl)phenyl)(1H-indol-5-yl)methanol], the “DSLS NBD1/3D Human Stability delta-T” value is “C (≤4° C.)”.
Regarding `c1ccc(Cc2nnc(-c3cccc(Oc4ccc5[nH]cc6c5c4CNCC6)c3)[nH]2)cc1` [Example 46, 9-(3-(5-Benzyl-4H-1,2,4-triazol-3-yl)phenoxy)-2,3,4,6-tetrahydro-1H-azepino[5,4,3-cd]indole], the “DSLS NBD1/3D Human Stability delta-T” value is “C (≤4° C.)”.
For `COCCNC(=O)c1c(Oc2cccc(-c3nc(C(O)c4ccccc4)c[nH]3)c2)ccc2[nH]ccc12` (centres unmarked) [Example 82, 5-(3-(4-(Hydroxy(phenyl)methyl)-1H-imidazol-2-yl)phenoxy)-N-(2-methoxyethyl)-1H-indole-4-carboxamide], the “DSLS NBD1/3D Human Stability delta-T” value is given as “B (4-8° C.)”.
For the molecule `COCCS(=O)(=O)c1c(Oc2cccc(-c3ncc(C(C)(O)c4ccccc4)[nH]3)c2)c(F)cc2[nH]ccc12` (centres unmarked) [Example 61, 1-(2-(3-((6-Fluoro-4-((2-methoxyethyl)sulfonyl)-1H-indol-5-yl)oxy)phenyl)-1H-imidazol-5-yl)-1-phenylethan-1-ol], the “DSLS NBD1/3D Human Stability delta-T” value was “B (4-8° C.)”.
`CS(=O)(=O)c1c(Oc2ccc(F)c(-c3nc(C(OCCO)c4ccccc4)c[nH]3)c2)c(F)cc2[nH]ccc12` (centres unmarked) [Example 72, 2-((2-(2-Fluoro-5-((6-fluoro-4-(methylsulfonyl)-1H-indol-5-yl)oxy)phenyl)-1H-imidazol-4-yl)(phenyl)methoxy)ethan-1-ol]: the “DSLS NBD1/3D Human Stability delta-T” value is recorded as “A (T ≥8° C.)”.
In the case of `O=C(O)Cc1c[nH]c2ccc(Oc3cccc(-c4nnc(Cc5ccccc5)[nH]4)c3)cc12` [Example 30, 2-(5-(3-(5-Benzyl-4H-1,2,4-triazol-3-yl)phenoxy)-1H-indol-3-yl)acetic acid] it was “C (≤4° C.)”.
Regarding `CC(O)(c1ccccc1)c1cnc(-c2cccc([S+]([O-])c3ccc4[nH]ccc4c3)c2)[nH]1` (centres unmarked) [Example 40, 1-(2-(3-((1H-Indol-5-yl)sulfinyl)phenyl)-1H-imidazol-5-yl)-1-phenylethan-1-ol], the “DSLS NBD1/3D Human Stability delta-T” value is on record as “C (≤4° C.)”.
As to `CS(=O)(=O)c1c(Oc2ccc(F)c(-c3nc(C(OCC(=O)O)c4ccccc4)c[nH]3)c2)c(F)cc2[nH]ccc12` (centres unmarked) [Example 73, 2-((2-(2-Fluoro-5-((6-fluoro-4-(methylsulfonyl)-1H-indol-5-yl)oxy)phenyl)-1H-imidazol-4-yl)(phenyl)methoxy)acetic acid], the “DSLS NBD1/3D Human Stability delta-T” value is given as “A (T ≥8° C.)”.
For the molecule `CC(=O)NCc1c(Oc2cccc(-c3ncc(C(O)c4ccccc4)[nH]3)c2)ccc2[nH]ccc12` (centres unmarked) [Example 18, N-((5-(3-(5-(Hydroxy(phenyl)methyl)-1H-imidazol-2-yl)phenoxy)-1H-indol-4-yl)methyl)acetamide], the “DSLS NBD1/3D Human Stability delta-T” value is “A (T ≥8° C.)”.
In the case of `CN(C)CCNC(c1ccccc1)c1nnc(-c2cccc(Oc3ccc4[nH]ccc4n3)c2)[nH]1` (centres unmarked) [Example 24, N1-((5-(3-((1H-Pyrrolo[3,2-b]pyridin-5-yl)oxy)phenyl)-4H-1,2,4-triazol-3-yl)(phenyl)methyl)-N2,N2-dimethylethane-1,2-diamine] it was “B (4-8° C.)”; in that of `O=C(O)c1c(Oc2cccc(-c3nc(C(O)c4ccccc4)c[nH]3)c2)ccc2[nH]ccc12` (centres unmarked) [Example 81, 5-(3-(4-(Hydroxy(phenyl)methyl)-1H-imidazol-2-yl)phenoxy)-1H-indole-4-carboxylic acid], “B (4-8° C.)”; in that of `CN1C(=O)SC(Cc2c(Oc3ccc(F)c(-c4nc(C(C)(O)c5ccccc5)c[nH]4)c3)c(F)cc3[nH]ccc23)C1=O` (centres unmarked) [Example 70, 5-((6-fluoro-5-(4-fluoro-3-(4-(1-hydroxy-1-phenylethyl)-1H-imidazol-2-yl)phenoxy)-1H-indol-4-yl)methyl)-3-methylthiazolidine-2,4-dione], “B (4-8° C.)”.
Take `CC(=O)c1c(Oc2cccc(-c3nc(C(C)(O)c4ccccc4)c[nH]3)c2)c(F)cc2[nH]ccc12` (centres unmarked) [Example 65, 1-(6-Fluoro-5-(3-(4-(1-hydroxy-1-phenylethyl)-1H-imidazol-2-yl)phenoxy)-1H-indol-4-yl)ethan-1-one]: the “DSLS NBD1/3D Human Stability delta-T” value is “A (T ≥8° C.)”.
With `O=C(O)c1c(Oc2cccc(-c3nc(C(O)(c4ccccc4)C(F)(F)F)n[nH]3)c2)ccc2[nH]ccc12` (centres unmarked) [Example 67, 5-(3-(3-(2,2,2-Trifluoro-1-hydroxy-1-phenylethyl)-1H-1,2,4-triazol-5-yl)phenoxy)-1H-indole-4-carboxylic acid], the “DSLS NBD1/3D Human Stability delta-T” value is reported as “C (≤4° C.)”.
In the case of `CC(O)(c1ccccc1)c1cnc(-c2cccc(Sc3ccc4[nH]ccc4c3)c2)[nH]1` (centres unmarked) [Example 39, 1-(2-(3-((1H-Indol-5-yl)thio)phenyl)-1H-imidazol-5-yl)-1-phenylethan-1-ol], the “DSLS NBD1/3D Human Stability delta-T” value is on record as “C (≤4° C.)”.
In the case of `O=C(O)c1c(Oc2cccc(-c3nnc(Cc4ccccc4)[nH]3)c2)ccc2[nH]ccc12` [Example 19, 5-(3-(5-Benzyl-4H-1,2,4-triazol-3-yl)phenoxy)-1H-indole-4-carboxylic acid] it was “B (4-8° C.)”.
For the molecule `O=C(Cc1c(Oc2cccc(-c3nnc(Cc4ccccc4)[nH]3)c2)ccc2[nH]ccc12)NS(=O)(=O)C(F)(F)F` [Example 60, 2-(5-(3-(5-Benzyl-4H-1,2,4-triazol-3-yl)phenoxy)-1H-indol-4-yl)-N-((trifluoromethyl)sulfonyl)acetamide], the “DSLS NBD1/3D Human Stability delta-T” value is listed as “A (T ≥8° C.)”.
Take `O=C(O)Cc1c(Oc2cccc(-c3nnc(Cc4ccccc4)[nH]3)c2)ccc2[nH]ccc12` [Example 11, 2-(5-(3-(5-Benzyl-4H-1,2,4-triazol-3-yl)phenoxy)-1H-indol-4-yl)acetic acid]: the “DSLS NBD1/3D Human Stability delta-T” value was “B (4-8° C.)”.

Values taken from US20240239784A1, “INDOLE COMPOUNDS AND METHODS OF USE” (GENZYME CORPORATION, priority 2021, published 2024).
